Data from ChEMBL document CHEMBL3991601, “The target landscape of clinical kinase drugs” (Science, 2017).
The source made the active and inactive calls. For most assays here, no stated cut-off is given here; in the data, actives have a measured Kd and inactives only a lower limit.

How the values were obtained:
[1] = target: Insulin-like growth factor 1 receptor (Homo sapiens, UniProt P08069)
[2] = target: T1, Probable ATP-dependent RNA helicase DDX6 (Homo sapiens, UniProt P26196)
T1 sequence (P26196 whole entry): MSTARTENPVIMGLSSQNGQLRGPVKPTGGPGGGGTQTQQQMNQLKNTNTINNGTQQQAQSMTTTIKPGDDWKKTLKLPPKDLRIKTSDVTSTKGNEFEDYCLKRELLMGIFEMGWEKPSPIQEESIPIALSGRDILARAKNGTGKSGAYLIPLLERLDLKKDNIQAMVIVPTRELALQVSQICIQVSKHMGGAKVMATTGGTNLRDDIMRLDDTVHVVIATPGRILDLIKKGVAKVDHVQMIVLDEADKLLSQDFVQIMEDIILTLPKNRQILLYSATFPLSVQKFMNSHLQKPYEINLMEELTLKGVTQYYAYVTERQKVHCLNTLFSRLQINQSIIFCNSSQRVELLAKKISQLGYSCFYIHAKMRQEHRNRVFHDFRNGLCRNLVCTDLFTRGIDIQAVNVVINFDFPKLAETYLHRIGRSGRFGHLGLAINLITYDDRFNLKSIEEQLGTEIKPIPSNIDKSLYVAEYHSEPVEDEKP

[3] = target: Tyrosine-protein kinase SYK (Homo sapiens, UniProt P43405)
[4] = target: Serine/threonine-protein kinase N1 (Homo sapiens, UniProt Q16512)
[5] = target: Elongation factor Tu, mitochondrial (Homo sapiens, UniProt P49411)
[6] = target: T2, Serine/threonine-protein kinase TAO3 (Homo sapiens, UniProt Q9H2K8)
T2 sequence (Q9H2K8 whole entry): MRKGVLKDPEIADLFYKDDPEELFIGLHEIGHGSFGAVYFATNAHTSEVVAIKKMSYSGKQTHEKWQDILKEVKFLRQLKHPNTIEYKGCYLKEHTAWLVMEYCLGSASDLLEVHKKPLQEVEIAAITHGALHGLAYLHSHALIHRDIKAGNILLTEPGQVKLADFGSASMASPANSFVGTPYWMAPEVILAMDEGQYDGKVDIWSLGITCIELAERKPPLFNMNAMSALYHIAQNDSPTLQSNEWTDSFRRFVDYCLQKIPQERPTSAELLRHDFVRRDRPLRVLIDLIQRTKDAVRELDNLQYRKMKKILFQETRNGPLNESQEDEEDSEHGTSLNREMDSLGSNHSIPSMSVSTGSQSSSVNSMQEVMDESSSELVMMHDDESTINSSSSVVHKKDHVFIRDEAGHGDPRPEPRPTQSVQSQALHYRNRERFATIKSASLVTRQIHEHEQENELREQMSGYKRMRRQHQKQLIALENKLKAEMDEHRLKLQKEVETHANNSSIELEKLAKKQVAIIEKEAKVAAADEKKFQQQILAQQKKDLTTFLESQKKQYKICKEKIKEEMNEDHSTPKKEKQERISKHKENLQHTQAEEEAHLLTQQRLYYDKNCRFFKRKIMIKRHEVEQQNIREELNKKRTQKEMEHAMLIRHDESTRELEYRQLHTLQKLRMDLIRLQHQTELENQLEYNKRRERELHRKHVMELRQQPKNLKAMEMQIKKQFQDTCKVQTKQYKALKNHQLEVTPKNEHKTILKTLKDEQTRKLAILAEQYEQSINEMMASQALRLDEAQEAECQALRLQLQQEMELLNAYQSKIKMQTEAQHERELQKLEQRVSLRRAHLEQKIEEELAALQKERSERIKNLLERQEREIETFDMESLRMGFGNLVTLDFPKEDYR

[7] = target: Protein kinase C alpha type (Homo sapiens, UniProt P17252)
[8] = target: T3, Peroxisomal acyl-coenzyme A oxidase 3 (Homo sapiens, UniProt O15254)
T3 sequence (O15254 whole entry): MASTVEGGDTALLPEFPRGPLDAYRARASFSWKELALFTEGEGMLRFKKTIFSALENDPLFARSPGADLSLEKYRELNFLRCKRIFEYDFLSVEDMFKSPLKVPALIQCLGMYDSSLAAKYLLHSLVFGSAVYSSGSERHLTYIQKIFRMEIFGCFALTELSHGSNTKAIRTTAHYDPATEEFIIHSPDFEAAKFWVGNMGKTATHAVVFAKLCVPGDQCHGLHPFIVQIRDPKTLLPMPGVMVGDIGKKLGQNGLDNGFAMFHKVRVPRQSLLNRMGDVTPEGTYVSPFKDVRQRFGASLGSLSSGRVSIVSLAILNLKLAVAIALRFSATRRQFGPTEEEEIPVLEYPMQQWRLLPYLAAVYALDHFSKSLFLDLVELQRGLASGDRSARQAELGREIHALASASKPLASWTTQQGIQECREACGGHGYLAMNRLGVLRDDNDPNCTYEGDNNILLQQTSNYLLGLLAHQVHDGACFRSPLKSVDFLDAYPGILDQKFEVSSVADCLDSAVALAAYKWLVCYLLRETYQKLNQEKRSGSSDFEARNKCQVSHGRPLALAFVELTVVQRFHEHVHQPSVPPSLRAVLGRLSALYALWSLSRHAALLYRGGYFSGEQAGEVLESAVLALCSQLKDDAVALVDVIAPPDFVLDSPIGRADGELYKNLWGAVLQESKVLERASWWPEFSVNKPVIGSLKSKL

[9] = target: LIM domain kinase 1 (Homo sapiens, UniProt P53667)
[10] = target: Mitotic checkpoint serine/threonine-protein kinase BUB1 (Homo sapiens, UniProt O43683)
[11] = target: cAMP-dependent protein kinase catalytic subunit gamma (Homo sapiens, UniProt P22612)
[12] = target: Serine/threonine-protein kinase PAK 4 (Homo sapiens, UniProt O96013)
Chain of Serine/threonine-protein kinase PAK 4 (O96013 whole entry): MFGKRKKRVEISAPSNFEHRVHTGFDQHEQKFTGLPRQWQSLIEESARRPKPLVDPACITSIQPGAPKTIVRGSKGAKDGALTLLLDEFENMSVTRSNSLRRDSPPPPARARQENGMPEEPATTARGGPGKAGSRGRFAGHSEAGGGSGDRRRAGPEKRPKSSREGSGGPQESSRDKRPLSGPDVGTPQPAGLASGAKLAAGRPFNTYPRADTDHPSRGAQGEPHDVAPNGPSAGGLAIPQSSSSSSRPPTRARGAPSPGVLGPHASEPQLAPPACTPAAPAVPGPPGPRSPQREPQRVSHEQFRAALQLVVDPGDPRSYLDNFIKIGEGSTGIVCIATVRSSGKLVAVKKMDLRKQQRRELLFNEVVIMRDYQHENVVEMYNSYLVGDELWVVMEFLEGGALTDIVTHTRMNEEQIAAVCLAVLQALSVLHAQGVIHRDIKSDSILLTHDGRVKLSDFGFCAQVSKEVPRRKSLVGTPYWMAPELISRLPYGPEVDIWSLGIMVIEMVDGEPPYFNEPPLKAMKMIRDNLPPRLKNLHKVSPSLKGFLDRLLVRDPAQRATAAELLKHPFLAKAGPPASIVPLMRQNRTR

Chain of Insulin-like growth factor 1 receptor (P08069 31-736 limits assumed): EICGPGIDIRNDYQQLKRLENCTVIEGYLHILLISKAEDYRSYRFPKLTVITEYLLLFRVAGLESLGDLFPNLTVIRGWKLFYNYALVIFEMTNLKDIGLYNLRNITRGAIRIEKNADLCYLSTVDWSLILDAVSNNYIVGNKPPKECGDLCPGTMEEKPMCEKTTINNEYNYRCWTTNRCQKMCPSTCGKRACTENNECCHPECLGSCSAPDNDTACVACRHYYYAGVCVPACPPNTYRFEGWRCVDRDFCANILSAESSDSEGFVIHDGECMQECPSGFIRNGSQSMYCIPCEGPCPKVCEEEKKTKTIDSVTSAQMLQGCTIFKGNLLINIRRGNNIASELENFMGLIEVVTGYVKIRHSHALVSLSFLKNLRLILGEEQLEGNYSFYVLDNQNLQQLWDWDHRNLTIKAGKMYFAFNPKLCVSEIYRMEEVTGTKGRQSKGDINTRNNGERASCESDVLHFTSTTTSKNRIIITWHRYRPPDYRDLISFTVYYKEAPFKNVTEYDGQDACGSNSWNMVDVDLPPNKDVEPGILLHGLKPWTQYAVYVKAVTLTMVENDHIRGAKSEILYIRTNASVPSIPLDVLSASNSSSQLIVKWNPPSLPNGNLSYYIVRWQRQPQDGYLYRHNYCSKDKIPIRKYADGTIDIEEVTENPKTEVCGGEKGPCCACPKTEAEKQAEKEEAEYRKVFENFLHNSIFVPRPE
Chain of Insulin-like growth factor 1 receptor (P08069 741-1367 limits assumed): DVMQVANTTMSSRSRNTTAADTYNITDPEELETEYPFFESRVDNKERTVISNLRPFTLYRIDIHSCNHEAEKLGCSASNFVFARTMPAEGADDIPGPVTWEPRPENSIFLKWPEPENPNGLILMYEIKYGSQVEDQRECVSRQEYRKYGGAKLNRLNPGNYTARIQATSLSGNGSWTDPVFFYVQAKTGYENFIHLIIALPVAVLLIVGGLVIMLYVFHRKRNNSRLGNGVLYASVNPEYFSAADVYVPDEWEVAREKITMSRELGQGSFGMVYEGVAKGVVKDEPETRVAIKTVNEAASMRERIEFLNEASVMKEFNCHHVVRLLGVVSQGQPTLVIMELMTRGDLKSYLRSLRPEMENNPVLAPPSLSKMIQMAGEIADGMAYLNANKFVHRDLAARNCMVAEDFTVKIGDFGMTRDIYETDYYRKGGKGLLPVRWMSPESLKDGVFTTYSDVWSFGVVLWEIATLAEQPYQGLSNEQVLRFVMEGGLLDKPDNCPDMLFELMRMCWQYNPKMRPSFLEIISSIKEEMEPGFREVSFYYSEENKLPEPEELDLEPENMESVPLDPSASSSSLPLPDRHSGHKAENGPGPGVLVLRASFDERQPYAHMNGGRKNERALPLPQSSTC
Chain of Serine/threonine-protein kinase N1 (Q16512 whole entry): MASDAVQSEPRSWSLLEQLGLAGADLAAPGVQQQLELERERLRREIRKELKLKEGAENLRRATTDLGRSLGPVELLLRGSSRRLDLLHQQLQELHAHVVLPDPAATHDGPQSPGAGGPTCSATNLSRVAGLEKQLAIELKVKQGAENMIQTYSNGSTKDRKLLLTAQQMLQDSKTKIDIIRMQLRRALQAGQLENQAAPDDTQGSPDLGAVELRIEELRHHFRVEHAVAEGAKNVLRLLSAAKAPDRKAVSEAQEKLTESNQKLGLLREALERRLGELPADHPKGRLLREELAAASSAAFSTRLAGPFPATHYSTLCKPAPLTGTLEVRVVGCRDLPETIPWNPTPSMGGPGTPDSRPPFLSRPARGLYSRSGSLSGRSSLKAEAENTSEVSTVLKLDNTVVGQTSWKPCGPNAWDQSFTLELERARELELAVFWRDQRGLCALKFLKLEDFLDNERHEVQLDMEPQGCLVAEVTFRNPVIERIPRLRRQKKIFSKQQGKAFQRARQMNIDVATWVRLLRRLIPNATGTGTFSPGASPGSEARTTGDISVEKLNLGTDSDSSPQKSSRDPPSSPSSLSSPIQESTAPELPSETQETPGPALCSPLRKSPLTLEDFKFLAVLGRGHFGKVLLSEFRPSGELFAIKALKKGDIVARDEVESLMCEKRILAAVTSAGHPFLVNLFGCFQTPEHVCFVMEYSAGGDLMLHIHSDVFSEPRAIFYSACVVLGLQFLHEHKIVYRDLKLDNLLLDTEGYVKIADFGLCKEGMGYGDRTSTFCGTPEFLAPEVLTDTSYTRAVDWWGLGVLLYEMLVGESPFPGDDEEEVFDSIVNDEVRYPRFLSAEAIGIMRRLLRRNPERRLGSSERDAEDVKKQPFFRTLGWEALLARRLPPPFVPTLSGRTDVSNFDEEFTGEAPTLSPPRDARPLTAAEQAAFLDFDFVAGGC
Chain of Mitotic checkpoint serine/threonine-protein kinase BUB1 (O43683 whole entry): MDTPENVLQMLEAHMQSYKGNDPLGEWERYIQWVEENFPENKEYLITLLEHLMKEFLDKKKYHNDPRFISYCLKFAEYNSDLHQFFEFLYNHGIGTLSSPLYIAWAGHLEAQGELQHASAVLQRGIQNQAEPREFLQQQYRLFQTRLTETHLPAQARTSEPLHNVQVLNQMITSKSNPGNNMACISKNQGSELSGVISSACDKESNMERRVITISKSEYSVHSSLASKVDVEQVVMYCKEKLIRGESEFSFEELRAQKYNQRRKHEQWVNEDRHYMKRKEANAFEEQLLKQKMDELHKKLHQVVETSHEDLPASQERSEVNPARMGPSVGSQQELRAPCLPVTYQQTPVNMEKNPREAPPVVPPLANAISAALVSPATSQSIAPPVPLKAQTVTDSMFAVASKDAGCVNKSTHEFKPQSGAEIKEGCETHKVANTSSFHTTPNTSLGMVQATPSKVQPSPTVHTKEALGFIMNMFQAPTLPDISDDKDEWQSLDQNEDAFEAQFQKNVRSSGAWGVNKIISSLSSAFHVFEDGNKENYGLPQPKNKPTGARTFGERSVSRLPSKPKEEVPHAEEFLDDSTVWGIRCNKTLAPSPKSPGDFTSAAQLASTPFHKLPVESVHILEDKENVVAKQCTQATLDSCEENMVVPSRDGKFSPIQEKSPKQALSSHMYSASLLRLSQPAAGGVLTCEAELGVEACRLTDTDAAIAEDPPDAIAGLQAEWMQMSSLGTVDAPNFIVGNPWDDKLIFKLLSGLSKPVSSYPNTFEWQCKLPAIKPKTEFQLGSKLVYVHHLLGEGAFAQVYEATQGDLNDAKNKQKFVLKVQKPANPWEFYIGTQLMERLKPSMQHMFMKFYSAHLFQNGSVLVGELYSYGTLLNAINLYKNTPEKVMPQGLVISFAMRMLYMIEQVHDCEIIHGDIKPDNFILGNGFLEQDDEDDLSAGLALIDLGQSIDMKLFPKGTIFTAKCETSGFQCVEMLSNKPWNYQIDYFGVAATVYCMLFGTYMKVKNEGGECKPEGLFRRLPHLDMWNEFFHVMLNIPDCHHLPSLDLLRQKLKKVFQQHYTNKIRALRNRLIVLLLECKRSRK
Chain of cAMP-dependent protein kinase catalytic subunit gamma (P22612 whole entry): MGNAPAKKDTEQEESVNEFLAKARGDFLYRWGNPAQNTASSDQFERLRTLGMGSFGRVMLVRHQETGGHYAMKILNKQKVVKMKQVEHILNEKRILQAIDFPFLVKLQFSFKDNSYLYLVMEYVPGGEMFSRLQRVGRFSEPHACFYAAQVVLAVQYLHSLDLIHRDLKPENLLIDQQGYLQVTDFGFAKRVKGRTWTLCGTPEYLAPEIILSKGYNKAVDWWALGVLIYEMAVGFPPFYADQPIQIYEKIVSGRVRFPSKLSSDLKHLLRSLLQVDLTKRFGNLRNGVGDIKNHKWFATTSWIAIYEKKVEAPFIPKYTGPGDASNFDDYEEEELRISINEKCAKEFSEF

Compound | Kd [1] | Kd [2] | Kd [3] | Kd [4] | Kd [5] | Kd [6] | Kd [7] | Kd [8] | Kd [9] | Kd [10] | Kd [11] | Kd [12]
Cc1cc2c(F)c(Oc3ncnn4cc(OC[C@@H](C)OC(=O)[C@H](C)N)c(C)c34)ccc2[nH]1 [BRIVANIB ALANINATE] | > 30 µM (inactive) | > 30 µM (inactive) | > 30 µM (inactive) | > 30 µM (inactive) | > 30 µM (inactive) | > 30 µM (inactive) | > 30 µM (inactive) | > 30 µM (inactive) | > 30 µM (inactive) | > 30 µM (inactive) | > 30 µM (inactive) | > 30 µM (inactive)
C=CC(=O)N1CCC(Oc2cc3c(Nc4ccc(Cl)c(Cl)c4F)ncnc3cc2OC)CC1 [POZIOTINIB] | > 30 µM (inactive) | > 30 µM (inactive) | > 30 µM (inactive) | > 30 µM (inactive) | > 30 µM (inactive) | > 30 µM (inactive) | > 30 µM (inactive) | > 30 µM (inactive) | > 30 µM (inactive) | > 30 µM (inactive) | > 30 µM (inactive) | > 30 µM (inactive)
COc1cc(N2CCC(N3CCN(C)CC3)CC2)ccc1Nc1ncnc(Nc2ccccc2S(=O)(=O)C(C)C)n1 [ASP-3026] | 9.72 µM (active) | > 30 µM (inactive) | > 30 µM (inactive) | > 30 µM (inactive) | > 30 µM (inactive) | > 30 µM (inactive) | > 30 µM (inactive) | > 30 µM (inactive) | 3.98 µM (active) | > 30 µM (inactive) | > 30 µM (inactive) | > 30 µM (inactive)
CCn1c(=O)c(-c2cc[nH]n2)cc2c(C)nc(N)nc21 [VOXTALISIB] | > 30 µM (inactive) | > 30 µM (inactive) | > 30 µM (inactive) | > 30 µM (inactive) | > 30 µM (inactive) | > 30 µM (inactive) | > 30 µM (inactive) | > 30 µM (inactive) | > 30 µM (inactive) | > 30 µM (inactive) | > 30 µM (inactive) | > 30 µM (inactive)

Further lines, results first:

Kd [1] | Kd [2] | Kd [3] | Kd [4] | Kd [5] | Kd [6] | Kd [7] | Kd [8] | Kd [9] | Kd [10] | Kd [11] | Kd [12] | Compound
> 30 µM (inactive) | > 30 µM (inactive) | > 30 µM (inactive) | > 30 µM (inactive) | > 30 µM (inactive) | > 30 µM (inactive) | > 30 µM (inactive) | > 30 µM (inactive) | 0.616 µM (active) | > 30 µM (inactive) | > 30 µM (inactive) | > 30 µM (inactive) | CNC(=O)c1cc(Oc2ccc(NC(=O)Nc3ccc(Cl)c(C(F)(F)F)c3)c(F)c2)ccn1 [REGORAFENIB]
> 30 µM (inactive) | > 30 µM (inactive) | > 30 µM (inactive) | > 30 µM (inactive) | > 30 µM (inactive) | > 30 µM (inactive) | > 30 µM (inactive) | > 30 µM (inactive) | > 30 µM (inactive) | > 30 µM (inactive) | > 30 µM (inactive) | > 30 µM (inactive) | COc1cc2nccc(Oc3ccc(NC(=O)NC4CC4)c(Cl)c3)c2cc1C(N)=O [LENVATINIB]
> 30 µM (inactive) | > 30 µM (inactive) | > 30 µM (inactive) | > 30 µM (inactive) | > 30 µM (inactive) | > 30 µM (inactive) | > 30 µM (inactive) | > 30 µM (inactive) | > 30 µM (inactive) | > 30 µM (inactive) | > 30 µM (inactive) | > 30 µM (inactive) | Cc1ccc(S(=O)(=O)Nc2nc3ccccc3nc2Nc2ccc3nsnc3c2)cc1
> 30 µM (inactive) | > 30 µM (inactive) | > 30 µM (inactive) | > 30 µM (inactive) | > 30 µM (inactive) | > 30 µM (inactive) | > 30 µM (inactive) | > 30 µM (inactive) | > 30 µM (inactive) | 1.92 µM | 49.3 µM (active) | > 30 µM (inactive) | Cc1c(F)cc(C(=O)NC2CC2)cc1-c1ccc(C(=O)NCC(C)(C)C)cn1 [LOSMAPIMOD]
